Reference: patent publication US20130287688A1, “NOVEL COMPOSITIONS AND USES OF ANTI-HYPERTENSION AGENTS FOR CANCER THERAPY” (XTUIT PHARMACEUTICALS, INC., priority 2010, published 2013)

Assays:
HSTS26T tumors [1] = experiment: TSP-1 immunostaining of tumor sections; format: in vivo, SCID mice; conditions: losartan treatment
Text: (§1) TSP-1 is a key regulator of TGF-β1 activation and losartan has been reported to reduce TSP-1 expression and TGF-β1 activation in mouse models of Marfan's syndrome and muscular dystrophy (Dietz H C (2010) J Clin Invest 120:403-407). […] In both Mu89 and HSTS26T tumors the immunostaining patterns for TSP-1 (FIGS. 7A-7B) and collagen I (FIGS. 5C-5D) were closely matched. The inventors detected high levels of TSP-1 and collagen I in the tumor margin, while losartan induced obvious reductions in TSP-1 and collagen I levels in the tumor center (FIGS. 5C, 7A).
(§2) Frozen sections were cut into 10 μm sections for immunohistochemistry and imaging. Collagen I was detected using the LF-67 antibody (1:100 dilution) with a previously described protocol (Znati C A, et al. (2003) Clin Cancer Res 9:5508-5513). TSP-1 was detected with a goat anti-human antibody (1:50 dilution), which cross-reacts with mice (sc-12312, Santa Cruz Biotechnology Inc., Santa Cruz, Calif.). For collagen and TSP-1 analysis, images at 20× magnification were taken randomly from each slide. The collagen and TSP-1 content was determined by measuring the number of pixels above a threshold value that was set based on the average intensity value of pixels from all slides under analysis. The background-signal intensity for both collagen I and thrombospondin-1 immunostaining was low and uniform.

Mu89 tumors [2] = experiment: TSP-1 immunostaining of tumor sections; format: in vivo, SCID mice; conditions: losartan treatment
Text: as §1, §2

HSTS26T tumors [3] = experiment: Distribution of intratumorally injected 100 nm nanoparticles; format: in vivo, mice; conditions: 100 nm diameter nanoparticles
Text: (§3) Based on the previous studies on the tumor interstitial matrix (Pluen A, et al. (2001) Proc Natl Acad Sci USA 98:4628-4633 and Brown E, et al. (2003) Nat Med 9:796-800), the inventors then sought to determine if a decrease in collagen content by Losartan can improve the intratumoral distribution of nanoparticles. The inventors therefore measured the intratumoral distribution of fluorescent polystyrene nanoparticles (100 nm diameter) in three different tumor types—HSTS26T, Mu89, and L3.6 pl—after an i.t. or i.v. injection. In mice injected i.t. with nanoparticles, losartan improved nanoparticle accumulation and penetration in the tumor center (FIG. 8A; HSTS26T p<0.001, Mu89 p<0.001). Conversely, there was little or no nanoparticle accumulation in the center of control tumors. Most of the injected nanoparticles in control tumors were found in the tumor margin and around the needle insertion point (FIG. 8A). The inventors also determined the effects of losartan on the intratumoral distribution of oncolytic HSV.
(§4) Nanoparticles and oncolytic HSV were infused with a syringe pump (Harvard Apparatus Standard Pump 22, Holliston, Mass.) at a flow rate of 4 μl/min. The inventors injected 10 μl of HSV (2.5×10^5 t.u.) expressing the green fluorescent protein (GFP), or 10 μl of fluorescent nanoparticles (diameter of […]; concentration of 1×10^13 nanoparticles/ml). […]

Mu89 tumors [4] = experiment: as above; format: in vivo, mice; conditions: 100 nm diameter nanoparticles
Text: as §3, §4

[5] = test system: L3.6PL orthotopic pancreatic tumors; experiment: DOXIL treatment and tumor growth delay; format: in vivo, SCID mice
Text: One week after the DOXIL injection, the tumors were resected and measured.

E0771 tumors [6] = experiment: Mathematical analysis of perfused vessel network (multiphoton microscopy); format: in vivo, mice
E0771 tumors [7] = experiment: Tissue oxygenation by phosphorescence quenching microscopy; format: in vivo, mice; conditions: versus control tumors that become more hypoxic with time
Method: An oxygen-sensitive porphyrin, Oxyphor R2 (Oxygen Enterprises) was injected retro-orbitally 12 hrs prior to imaging, and was reinjected immediately prior to imaging along with 2MDa FITC-dextran (Sigma-Aldrich) for functional vascular tracing. A mosaic image of the tumor was collected, and oxygen was then measured in an evenly spaced 12×12 grid at four depths (60, 120, 180, and 240 μm) in the tumor. At each point in the grid, the phosphorescence lifetime of the probe was measured after each of several repeated brief intense pulses of 1020 nm laser light, and these lifetime measurements were combined. A two-component model was used to calculate the oxygen tension from each lifetime measurement, accounting for binding and quenching of the probe by both oxygen and proteins. The grid was then overlayed on the mosaic images to make an oxygen map.

E0771 breast tumors = experiment: Interstitial hydraulic conductivity of excised tumor tissue; format: in vivo, mice; conditions: 40 mg/kg i.p. daily, 6 days
Method: FIG. 31 is a bar graph showing that angiotensin inhibitors increase fluid flow in tumors. Interstitial hydraulic conductivity was measured by the flow rate of media through freshly excised tumor tissue. […] Animal number n=6.
Oxygenation was then studied using phosphorescence quenching microscopy. […] This decrease in tumor hypoxia was confirmed by using pimonidazole staining (FIGS. 29D and 30). To determine if losartan also increases nanomedicine delivery, which is dependent on both vascular supply and penetration across vessel walls into tumor tissue, nanoparticle penetration was measured using intravital multiphoton microscopy. Nanoparticle penetration rates were quantified as transvascular mass flux per unit vascular surface area and transvascular concentration difference, termed as the effective permeability. […] Penetration rates are largely dependent on fluid flow through the viscoelastic and tortuous tumor interstitium, which is a function of interstitial hydraulic conductivity. It was determined that losartan also increases the hydraulic conductivity of E0771 tumors (FIG. 31), likely through its anti-matrix effects, and a mathematical model (Chauhan V P, et al., Nature Nanotechnology. 2012; advance online publication) was used to confirm that this can improve the penetration rate of all sizes of nanomedicines (FIG. 32). […]

## CCCCc1nc(Cl)c(CO)n1Cc1ccc(-c2ccccc2-c2nn[nH]n2)cc1 [losartan]
HSTS26T tumors [1]
  decrease in TSP-1 immunostaining: 73%
Mu89 tumors [2]
  decrease in TSP-1 immunostaining: 24%
HSTS26T tumors [3]
  increase in distribution of i.t.-injected nanoparticles: 1.5 fold
Mu89 tumors [4]
  increase in distribution of i.t.-injected nanoparticles: 4 fold
[5]; agent alone (losartan 20 mg/kg/day or DOXIL 4 mg/kg i.v.), after 7 days
  mean tumor weight: did not affect
[5]; losartan 20 mg/kg/day combined with DOXIL 4 mg/kg i.v.
  tumor size vs DOXIL alone: significantly smaller
[5]; losartan alone
  growth of pancreatic tumors or weight of treated mice: did not affect
[5]; losartan combined with DOXIL
  reduction of tumor sizes compared to DOXIL treatment alone: 50%
E0771 tumors [6]; from a typical 1.89 in tumors toward 2.0 of normal capillary beds
  fractal dimension of vessel network: increases
E0771 tumors [6]; pre- and post-treatment (days 2-5)
  maximum distance drugs and oxygen must travel to reach tumor cells: decreases
E0771 tumors [7]
  tissue oxygenation: maintains the level of oxygenation
E0771 breast tumors
  interstitial hydraulic conductivity: large increase
